{"source": "patent US10555954B2", "about": "“Hazardous agent injection system” (Antares Pharma, Inc., priority 2009, dated 2020)", "key": {"[1]": {"system": "patients with rheumatoid arthritis", "conditions": "after switching from intramuscular to oral; cited from earlier work"}, "[2]": {"system": "patients with active rheumatoid arthritis", "conditions": "cited from earlier work; for patients achieving ACR20: 16 weeks, starting dose 15 mg per week; for time to achieve an ACR20 response: subgroup n=98; for ACR20 responders: subgroup ≥1 year since diagnosis with prior DMARDs or steroids (n=98)"}, "[3]": {"system": "rheumatoid arthritis patients", "conditions": "cited from earlier work"}, "[4]": {"conditions": "pediatric patients with juvenile rheumatoid arthritis, cited from earlier work"}, "[5]": {"conditions": "cited from earlier work"}, "[6]": {"system": "patients with rheumatoid arthritis", "conditions": "15 mg per week, cited from earlier work"}, "[7]": {"test": "Pharmacokinetics of methotrexate in plasma after subcutaneous injection with autoinjector or needle/syringe", "conditions": "for AUC(0-inf) / AUC(0-τ) / Tmax / T½ / AUC: plasma; for AUC(0-t): individual animals; for AUC: AUC(0-τ)"}, "[8]": {"conditions": "Autoinjector, Female, 12.5 mg SC, animals S5196028/S5195684/S5195757"}, "[9]": {"conditions": "Autoinjector, Male, 12.5 mg SC, animals S5196273/S5196559/S5196206"}, "[10]": {"conditions": "Syringe, Female, 12.5 mg SC, animals S5196028/S5195684/S5195757"}, "[11]": {"conditions": "Syringe, Male, 12.5 mg SC, animals S5196273/S5196559/S5196206"}}, "note": "Values joined by “and” are separate entries in the source; they are usually repeats but may differ in a detail not shown here. Equal values may be shown once. “Also recorded” adds a separate entry of the source. Read-outs that look alike come from different tables or passages of the source."}
{"smiles": "CN(Cc1cnc2nc(N)nc(N)c2n1)c1ccc(C(=O)N[C@@H](CCC(=O)O)C(=O)O)cc1", "note": "[Methotrexate, L-(+)-N-[p-[[(2,4-Diamino-6-pteridinyl)methyl]methylamino]-benzoyl]glutamic acid]", "values": [{"measurement": "patients reporting nausea", "setting": "[1]", "result": 48, "unit": "%"}, {"measurement": "patients achieving ACR20", "setting": "[2]; oral", "result": 77, "unit": "%"}, {"measurement": "time to achieve an ACR20 response", "setting": "[2]; oral", "result": 6, "unit": "weeks"}, {"measurement": "ACR20 responders", "setting": "[2]; oral", "result": 63, "unit": "%"}, {"measurement": "further ACR20 non-responders with positive ACR20 response", "setting": "[2]; subcutaneous dosage increased from 15 mg to 20 mg", "result": 23, "unit": "%"}, {"measurement": "patients achieving ACR20", "setting": "[2]; subcutaneous", "result": 85, "unit": "%"}, {"measurement": "time to achieve an ACR20 response", "setting": "[2]; subcutaneous", "result": 4, "unit": "weeks"}, {"measurement": "ACR20 responders", "setting": "[2]; subcutaneous", "result": 89, "unit": "%"}, {"measurement": "ACR20 non-responders with positive ACR20 response after switch", "setting": "[2]; switched from 15 mg oral to 15 mg subcutaneous at 16 weeks", "result": 30, "unit": "%"}, {"measurement": "patients judged to have moderate or marked improvement", "setting": "[3]; 10 mg to 15 mg intramuscular once a week, 78 patients", "result": "Eighty-two"}, {"measurement": "patients who deteriorated after switching to oral methotrexate", "setting": "[3]; improved after switching back to intramuscular", "result": "10 of 48 patients"}, {"measurement": "average mean serum concentration", "setting": "[4]; about 1 hour", "result": "about 0.59 μM"}, {"measurement": "average mean serum concentration", "setting": "[4]; about 2 hours", "result": "about 0.44 μM"}, {"measurement": "average mean serum concentration", "setting": "[4]; about 3 hours", "result": "about 0.29 μM"}, {"measurement": "peak serum concentrations and bioavailability, intramuscular versus subcutaneous", "setting": "[5]; Brooks et al., 12.5 mg to 25 mg per week", "result": "similar"}, {"measurement": "fall of total absorption after oral administration, maintenance versus starting dosage", "setting": "[5]; Hamilton et al., start 7.5 mg per week, maintenance average 17 mg per week, 21 rheumatoid arthritis patients", "result": "about 13.5%"}, {"measurement": "average DAS28", "setting": "[6]; after switch from oral to intramuscular administration", "result": 5.2}, {"measurement": "average DAS28", "setting": "[6]; before switch from oral to intramuscular administration", "result": 5.6}, {"measurement": "difference in exposure / PK parameters between males and females", "setting": "[7]; 12.5 mg SC, both devices", "result": "no marked difference; also recorded: no marked sex-related differences"}, {"measurement": "exposure with autoinjector compared to needle/syringe", "setting": "[7]; 12.5 mg SC, male and female minipigs", "result": "very similar; also recorded: comparable"}, {"measurement": "AUC(0-inf)", "setting": "[7]; [8]", "result": 1859, "unit": "ng·mL·h"}, {"measurement": "AUC(0-τ)", "setting": "[7]; [8]", "result": 1857, "unit": "ng·mL·h"}, {"measurement": "Tmax", "setting": "[7]; [8]", "result": 15, "unit": "min"}, {"measurement": "T½", "setting": "[7]; [8]", "result": "237 min and 196 min"}, {"measurement": "AUC(0-t)", "setting": "[7]; Autoinjector, Female, Day 8", "result": "2498 ng·h/mL and 1857 ng·h/mL"}, {"measurement": "T½", "setting": "[7]; Autoinjector, Male, 12.5 mg SC, Mean", "result": 115, "unit": "min"}, {"measurement": "Tmax", "setting": "[7]; Autoinjector, Male, 12.5 mg SC, Median", "result": 15, "unit": "min"}, {"measurement": "AUC(0-inf)", "setting": "[7]; [9]", "result": "1903 ng·mL·h and 1407 ng·mL·h"}, {"measurement": "Tmax", "setting": "[7]; [9]", "result": 15, "unit": "min"}, {"measurement": "T½", "setting": "[7]; [9]", "result": 120, "unit": "min"}, {"measurement": "AUC(0-t)", "setting": "[7]; Needle/Syringe, Female, Day 1", "result": "2378 ng·h/mL and 1831 ng·h/mL"}, {"measurement": "Tmax", "setting": "[7]; Syringe, Female, 12.5 mg SC, Median", "result": 15, "unit": "min"}, {"measurement": "AUC(0-inf)", "setting": "[7]; [10]", "result": "2675 ng·mL·h and 1832 ng·mL·h"}, {"measurement": "Tmax", "setting": "[7]; [10]", "result": 15, "unit": "min"}, {"measurement": "Tmax", "setting": "[7]; Syringe, Male, 12.5 mg SC, Median", "result": 15, "unit": "min"}, {"measurement": "T½", "setting": "[7]; Syringe, Male, 12.5 mg SC, animal S5196559", "result": 115, "unit": "min"}, {"measurement": "AUC(0-τ)", "setting": "[7]; [11]", "result": "2464 ng·mL·h and 2016 ng·mL·h"}, {"measurement": "Tmax", "setting": "[7]; [11]", "result": "15 min and 30 min"}, {"measurement": "time at which maximal plasma concentrations were generally observed", "setting": "[7]; both devices, first collection time point", "result": 0.25, "unit": "h"}, {"measurement": "AUC(0-inf)", "setting": "[7]; female, Gottingen, minipig, sc, 12.5 mg, AUC(0-inf), Autoinjector, 12.5 mg SC, Mean", "result": 2510, "unit": "ng·h/mL"}, {"measurement": "AUC(0-inf)", "setting": "[7]; female, Gottingen, minipig, sc, 12.5 mg, AUC(0-inf), Autoinjector, 12.5 mg SC, animals S5196028/S5195684/S5195757", "result": 3170, "unit": "ng·h/mL"}, {"measurement": "AUC(0-inf)", "setting": "[7]; female, Gottingen, minipig, sc, 12.5 mg, AUC(0-inf), Syringe, 12.5 mg SC, Mean", "result": 2300, "unit": "ng·h/mL"}, {"measurement": "AUC(0-inf)", "setting": "[7]; female, Gottingen, minipig, sc, 12.5 mg, AUC(0-inf), Syringe, 12.5 mg SC, animals S5196028/S5195684/S5195757", "result": 2380, "unit": "ng·h/mL"}, {"measurement": "AUC", "setting": "[7]; female, Gottingen, minipig, sc, 12.5 mg, Syringe, 12.5 mg SC, animals S5196028/S5195684/S5195757", "result": 1830, "unit": "ng·h/mL"}, {"measurement": "AUC(0-inf)", "setting": "[7]; male, Gottingen, minipig, sc, 12.5 mg, AUC(0-inf), Autoinjector, 12.5 mg SC, Mean", "result": 1490, "unit": "ng·h/mL"}, {"measurement": "AUC(0-inf)", "setting": "[7]; male, Gottingen, minipig, sc, 12.5 mg, AUC(0-inf), Autoinjector, 12.5 mg SC, animals S5196273/S5196559/S5196206", "result": 1160, "unit": "ng·h/mL"}, {"measurement": "AUC(0-inf)", "setting": "[7]; male, Gottingen, minipig, sc, 12.5 mg, AUC(0-inf), Syringe, 12.5 mg SC, animal S5196559", "result": 2470, "unit": "ng·h/mL"}, {"measurement": "AUC", "setting": "[7]; male, Gottingen, minipig, sc, 12.5 mg, Syringe, 12.5 mg SC, Mean", "result": 1940, "unit": "ng·h/mL"}, {"measurement": "AUC", "setting": "[7]; male, Gottingen, minipig, sc, 12.5 mg, Syringe, 12.5 mg SC, animals S5196273/S5196559/S5196206", "result": 1320, "unit": "ng·h/mL"}]}
